# Laboratory results: a melting point compilation (Tetko et al.)
row,SMILES,melting point [°C]
1,O=C(O)CNC(c1ccccc1)C(F)(F)F (configuration not stated),191 to 193
2,COc1ccc(OC)c(N2CC(C(=O)O)CC2=O)c1 (configuration not stated),100 to 102
3,ON=Cc1cccc(OCc2ccncc2)c1,177 to 179
4,NC(=O)CCCl,142 to 144
5,Nc1ccc(CCN2CCSCC2)cc1,88 to 90
6,CN(C)C(=O)COc1ccc(N)c(F)c1,106 to 108
7,Sc1nc(C2CC2)nc2ccccc12,219 to 221
8,CC1C=C(C(=O)O)CC1 (configuration not stated),33 to 35
9,Cc1cc(=O)c(C(=O)O)nn1-c1ccccc1,167 to 169
10,Nc1cccc(S(=O)(=O)Nc2ccccc2)c1,127 to 129
11,C#CCN1C(=O)C(=O)c2ccccc21,153 to 155
12,CC(=O)OCc1ccc(Cl)cc1C#N,54 to 56
13,COc1ccc(C=NO)cc1OC,91 to 93
14,COC(=O)C1Cc2ccccc2CN1C(=O)CCl (configuration not stated),85 to 87
15,Cc1ccc(C2(C(=O)O)CCOCC2)cc1,189 to 191
16,Nc1ccc2c(N)n[nH]c2c1,209 to 211
17,O=C(O)CCc1nc2ccccc2o1,110 to 112
18,O=C(O)c1ccc(=O)n(-c2ccccc2F)n1,199 to 201
19,O=C1CC(C(=O)O)c2ccccc2N1 (configuration not stated),211 to 213
20,CC(c1cc(Cl)ccc1Cl)n1nccc1N (configuration not stated),94 to 96
21,O=c1[nH]c2ccccc2c(=O)n1CCO,257 to 259
22,CC(=O)CCc1ccc(OC(C)C(=O)O)cc1 (configuration not stated),68 to 70
23,Cc1ccccc1CNC(=O)C(C)Cl (configuration not stated),108 to 110
24,CCOC(=O)c1ccc2nc(CCC(=O)O)c(=O)n(CC)c2c1,181 to 185

row,SMILES,melting point [°C]
1,CC1CCN(Cc2ccccc2CN)CC1,161 to 163
2,Cc1cc(C)n(N)c(=O)c1C#N,164 to 166
3,O=C(O)C(Oc1ccc(F)cc1Cl)c1ccccc1 (configuration not stated),134 to 136
4,CCOC(=O)c1c(N)c(C#N)cn1CCOC,99 to 101
5,Cc1ccc(-c2nn(-c3ccccc3)cc2C=O)o1,112 to 114
6,Nc1ccc2[nH]c(-c3cc(F)ccc3F)nc2c1,188 to 190
7,Nc1cccc(-n2ccnc2)c1,112 to 114
8,Cc1noc(C)c1COc1ccccc1C(=O)O,172 to 174
9,Cc1cc(C(=O)CCl)c(F)cc1F,80 to 82
10,O=Cc1ccc(OCc2ccccc2)c(Br)c1,96 to 98
11,O=C(O)c1ccc(N2CCCC2)c(F)c1,269 to 271
12,O=C(O)C1CCN1Cc1ccccc1 (configuration not stated),176 to 178
13,O=C1NCCNC1c1ccc(C(F)(F)F)cc1 (configuration not stated),141 to 143
14,Cc1nc(CC(=O)NN)cs1,114 to 116
15,COC(=O)c1scnc1C1CC1,59 to 61
16,Cc1ccc(-n2cc(SC(=O)N(C)C)cn2)cc1,95 to 97
17,O=C(Nc1ccc(F)cc1)OCC(F)(F)F,76 to 80
18,CC(C)(C)c1ccc(N2CCC(N)CC2)cc1,80 to 82
19,N#Cc1cn(-c2ccc([N+](=O)[O-])cn2)nc1N,322 to 324
20,Nc1cccnc1OCc1ccccc1,51 to 53
21,NS(=O)(=O)Cc1ccc(F)cc1,122 to 124
22,NC1=NNC(=O)C1c1ccccc1 (configuration not stated),249 to 251
23,Nc1ccc(CN2CCN(c3ccccn3)CC2)cc1,101 to 103
24,COc1ncnc(N(C)C)c1N,69 to 71

row,SMILES,melting point [°C]
1,O=c1[nH]c(-c2ccc(F)cc2)cs1,179 to 181
2,O=C1NC(=O)N2CCCCC12 (configuration not stated),114 to 116
3,Nc1ccnn1Cc1cccc2ccccc12,136 to 140
4,Cn1cnnc1-c1ccccc1,114 to 116
5,O=C(O)c1[nH]nc(C2CC2)c1Cl,231 to 233
6,O=C(O)CCCNC(=O)c1ccc2[nH]nnc2c1,230 to 232
7,COc1cc(C(C)=O)ccc1S(C)(=O)=O,124 to 126
8,CC(C)(C)OC(=O)N1CCC(C(=O)O)(c2ccccc2)CC1,116 to 118
9,COc1ccc(-c2nc(CN)cs2)cc1,67 to 69
10,COc1cc(C=O)ccc1OCC(=O)c1ccccc1,127 to 129
11,CC(=O)Nc1nc(C)c(S(=O)(=O)Cl)s1,158 to 160
12,O=C(O)CCOc1ccc([N+](=O)[O-])cc1,116 to 118
13,CC(C)(C)OC(=O)N1CCC(=O)C(Br)C1 (configuration not stated),95 to 97
14,Cc1ccc(S(=O)(=O)Cl)c(C)c1OCC(=O)O,144 to 146
15,COc1cccc(Cn2c(N)nc3ccccc32)c1,145 to 147
16,CC(=O)N1CCN(c2ccc(C(=O)O)cc2[N+](=O)[O-])CC1,262 to 264
17,N#Cc1ccc(OCC(=O)O)c(Cl)c1,178 to 180
18,CON(C)S(=O)(=O)c1cc(C(=O)O)ccc1Cl,228 to 230
19,Oc1ccc2ccccc2c1CN1CCOCC1,52 to 54
20,O=C1NS(=O)(=O)c2ccc(Br)cc21,245 to 247
21,COC(=O)C1=NN(c2cccc(C(=O)O)c2)C(=O)C1CCO (configuration not stated),211 to 213
22,O=C(Cc1ccc(Br)cc1)Nc1ccccc1C(=O)O,212 to 214
23,COc1ccc(I)cc1F,32 to 34
24,O=Cc1ccc([N+](=O)[O-])cc1F,84 to 86

row,SMILES,melting point [°C]
1,O=C(O)CS(=O)(=O)Cc1cccs1,107 to 109
2,CN1CCC(=O)Nc2cc(Cl)ccc21,138 to 140
3,NCc1cccc(NC(=O)Cn2cccn2)c1,113 to 115
4,O=S(=O)(c1ccc2c(c1)CCC2)N1CCNCC1,90 to 92
5,Nc1cccc2c1CN(CCO)C2,109 to 111
6,CN(C)S(=O)(=O)c1cc(C(=O)O)ccc1F,199 to 201
7,CCOC(=O)Cn1[nH]cc(C(=O)OCC)c1=N,72 to 74
8,O=[N+]([O-])c1ccc(CCS(=O)(=O)Cl)cc1,89 to 91
9,Cc1sc(=O)n(CC(=O)O)c1-c1ccc(F)cc1,139 to 141
10,COc1cccc(-c2cc(N)n(-c3ccccc3)n2)c1,112 to 114
11,O=C(O)c1ccc(I)c(Br)c1,243 to 245
12,CC(C)(C)n1cc(C#N)cc1N,105 to 107
13,O=C(O)c1cccc(NS(=O)(=O)c2ccccc2)c1,199 to 201
14,O=c1cnc2ccccc2n1CCS(=O)(=O)F,145 to 147
15,O=C(O)/C=C/c1cc2ccccc2o1,213 to 215
16,Nc1cccnc1N1CCCC1,78 to 80
17,N#Cc1ccc(Oc2ccc(F)c(Cl)c2)c(F)c1,97 to 99
18,Nc1nnc(Cc2ccc3ccccc3c2)o1,219 to 221
19,O=c1[nH]nc2ccc(Cl)nn12,269 to 271
20,Cc1cc(N)cc2[nH]ncc12,179 to 181
21,O=C(Nc1cccc(O)c1)C1CC1,184 to 186
22,CC(C)(C)OC(=O)NC(CN)c1ccccc1 (configuration not stated),65 to 67
23,N#Cc1cccc(-n2cncn2)c1,150 to 152
24,O=C(O)Cc1csc2nccn12,259 to 261

row,SMILES,melting point [°C]
1,NS(=O)(=O)c1ccc(N2CCCC2=O)cc1,247 to 249
2,NCc1ccc(-c2ccn[nH]2)cc1,141 to 143
3,c1nnc(C2CCCNC2)[nH]1 (configuration not stated),149 to 151
4,CC(O)(C(=O)O)c1ccc(F)cc1 (configuration not stated),89 to 91
5,Cc1cc(C)c(-c2csc(N)n2)cc1C,252 to 254
6,CC(C)S(=O)(=O)c1ccc(Cl)c(C(=O)O)c1,129 to 131
7,COCCOc1ccc(CC#N)cc1,49 to 51
8,O=C(O)Cn1c(COc2ccccc2)nc2ccccc21,199 to 201
9,Cc1ccccc1-c1noc(S)n1,150 to 152
10,COc1ccccc1NS(=O)(=O)c1ccc(C(=O)O)cc1,201 to 203
11,Cc1cc(F)cc2c(Cl)c(C#N)cnc12,137 to 139
12,CC(=O)N(c1cccc(C)c1)c1nc(CCl)cs1,117 to 119
13,COc1cc2c(cc1/C=C/C(=O)O)OC(C)C2 (configuration not stated),146 to 148
14,NCCNC(=O)c1ccc(Br)cc1,38 to 40
15,Nc1nnc(Cc2ccccc2Cl)o1,196 to 198
16,CC(C)(C)c1ccc(-c2nnc(CCl)o2)cc1,65 to 67
17,NC(=O)C1(Nc2ccccc2)CCCCC1,148 to 150
18,O=C(O)CSCc1ccc(Br)cc1F,57 to 59
19,Cc1ccc(N2CCC(N)C2=O)cc1 (configuration not stated),97 to 99
20,Nc1nc(-c2ccccc2Cl)ns1,119 to 121
21,O=C(O)CCNS(=O)(=O)c1ccc2ccccc2c1,170 to 180
22,Nc1cc2c(cc1[N+](=O)[O-])OCCO2,150 to 152
23,Cc1cc([N+](=O)[O-])ccc1S(=O)(=O)Cl,69 to 71
24,CCOC(=O)c1cccnc1NC,46 to 48

row,SMILES,melting point [°C]
1,O=[N+]([O-])c1cccc(-c2cnc(CCCl)o2)c1,73 to 75
2,N#Cc1ccc(OCC(=O)O)cc1,177 to 179
3,Nc1ccnn1Cc1ccc(F)cc1,59 to 61
4,N#Cc1c(F)cccc1-n1ccc(N)n1,134 to 136
5,CC(C(=O)c1ccc(Br)cc1)N1C(=O)CCC1=O (configuration not stated),171 to 173
6,O=C(O)C1CCN(C(=O)C2CC2)CC1,211 to 213
7,Nc1c(-c2ccc(F)cc2)nc2sccn12,137 to 139
8,COC(=O)c1ccsc1N1CCC(N)C1=O (configuration not stated),88 to 90
9,Nc1cccc(OCc2ccc(F)cc2)c1,87 to 89
10,Cc1ccc(C(=O)CCC(=O)O)cc1C,127 to 129
11,COC(=O)CCSc1ccc([N+](=O)[O-])cc1C(=O)O,165 to 167
12,N#Cc1c(C(F)(F)F)cc(=O)[nH]c1SCC(=O)O,200 to 204
13,O=C(O)c1ccc(S(=O)(=O)N2CCOCC2)cc1,287 to 289
14,COc1cc(NC(=O)Cc2cccs2)c(C(=O)O)cc1OC,195 to 197
15,Cc1cc(C(=O)CCl)c(C)n1CCC(C)C,55 to 57
16,O=C(O)c1ccc(Oc2ccccc2Cl)cc1,144 to 146
17,CS(=O)(=O)c1ccc(O)c(N)c1,155 to 157
18,CCC(CC)(Cc1nc2ccccc2s1)C(=O)O,143 to 145
19,CS(=O)(=O)c1cc(C#N)ccn1,143 to 145
20,O=C(CCl)NC(=O)NC1CCS(=O)(=O)C1 (configuration not stated),173 to 175
21,COC(=O)Nc1snc(C)c1C(=O)O,215 to 217
22,Cc1n[nH]c(N)c1C#N,160 to 162
